The values below are quoted from earlier work in patent US20070166344A1, “Non-leaching surface-active film compositions for microbial adhesion prevention” (priority 2006, published 2007).

For the data set the following is noted: organism not given.

Benzalkonium chloride: the MIC level entry is given as “about 7.5 ppm”.
